Measured values from patent publication US8809333B2, “Imidazole, pyrazole, and triazole derivatives useful as antibacterial agents” (Pfizer Inc., priority 2011, dated 2014).
pIC50: −log10 of the molar value. ≈ marks a conversion by molar mass, not a printed value.

Legend:
[1] = test system: Pseudomonas aeruginosa UI-18: Wild-type (PA-7); assay: MIC determination (CLSI), PA-7; assay type: cell-based; conditions: Pseudomonas aeruginosa UI-18 wild-type; overnight incubation; lower of duplicate values; read-out: PA-7 (MIC)
Procedure, shortened: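 Broth dilution MIC per CLSI M7-A8, using 2-fold compound dilutions incubated overnight; MIC is the lowest concentration with no visible growth versus the drug-free control. Run in duplicate, lower value reported when within 2-fold. Control organisms and reference compounds were included for QC.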

[2] = test system: Acinetobacter baumannii/haemolyticus: Multidrug-resistant clinical isolate (AB-3167); assay: MIC determination (CLSI), AB-3167; assay type: cell-based; conditions: Acinetobacter baumannii/haemolyticus multidrug-resistant clinical isolate; overnight incubation; lower of duplicate values; read-out: AB-3167 (MIC)
Procedure, shortened: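 Broth dilution MIC per CLSI M7-A8, 2-fold concentration steps, overnight incubation, visual read of lowest concentration inhibiting growth versus drug-free control. Tested in duplicate; lower value reported if within 2-fold, otherwise repeated; QC organisms and reference drugs required within range.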

[3] = target: T1, Pseudomonas aeruginosa LpxC enzyme (Pseudomonas aeruginosa, UniProt P47205); assay: IC50 assay, LpxC enzyme from P. aeruginosa (BioTrove RapidFire mass spectrometry); assay type: biochemical; conditions: P. aeruginosa LpxC enzyme 0.1 nM, 25° C., 1 hour, pH 8.0; read-out: PA: IC50
T1 construct: made in house; host or cells: E. coli
T1 sequence (P47205 1-303): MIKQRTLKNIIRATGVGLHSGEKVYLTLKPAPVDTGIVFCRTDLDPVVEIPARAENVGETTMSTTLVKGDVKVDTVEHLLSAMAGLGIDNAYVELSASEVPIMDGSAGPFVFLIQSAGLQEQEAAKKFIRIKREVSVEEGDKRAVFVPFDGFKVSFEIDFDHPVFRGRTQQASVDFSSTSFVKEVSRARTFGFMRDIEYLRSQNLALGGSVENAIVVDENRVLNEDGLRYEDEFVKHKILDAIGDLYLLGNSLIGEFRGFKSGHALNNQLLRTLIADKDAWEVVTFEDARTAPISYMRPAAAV
Procedure, shortened: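 P. aeruginosa LpxC reaction run 1 hour, stopped with 1 N HCl, and substrate-to-product conversion quantified by RapidFire mass spectrometry. IC50 calculated from percent conversion using a no-enzyme control.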

[4] = test system: Klebsiella pneumoniae: Ciprofloxacin-resistant isolate, expresses ESBL, clinical isolate (KP-3700); assay: MIC determination (CLSI), KP-3700; assay type: cell-based; conditions: overnight incubation, lower of duplicate values
Procedure, shortened: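 Broth dilution MIC per CLSI M7-A8 against the ciprofloxacin-resistant, ESBL-expressing clinical isolate, 2-fold concentration steps, overnight incubation, visual read of lowest growth-inhibiting concentration. Tested in duplicate; lower value reported when within 2-fold; control organisms and reference compounds required within range.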

[5] = test system: Escherichia coli EC-1: VOGEL, mouse virulent; assay: MIC determination (CLSI), EC-1; assay type: cell-based; conditions: Escherichia coli, read-out: EC-1 (MIC)
Procedure, shortened: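 Broth dilution MIC per CLSI M7-A8, with 2-fold compound dilutions incubated overnight with a standard inoculum. MIC is the lowest concentration visibly inhibiting growth versus drug-free control; tested in duplicate, reporting the lower value when within 2-fold, with QC organisms and reference compounds required in range.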

SMILES | MIC [1] [µg/mL] | MIC [2] [µg/mL] | pIC50 [3] | KP-3700 (MIC) [4] [µg/mL] | MIC [5] [µg/mL]
COc1ccc(-c2cnn(CCC(C)(C(=O)NO)S(C)(=O)=O)c2)cc1OC (stereo not drawn) [Example 65, 4-[4-(3,4-dimethoxyphenyl)-1H-pyrazol-1-yl]-N-hydroxy-2-methyl-2-(methylsulfonyl)butanamide] | > 64 | > 64 | 7.03 | >64.0 | > 64
CC(CCn1cc(-c2ccc(C3(C#N)CC3)cc2)cn1)(C(=O)NO)S(C)(=O)=O (stereo not drawn) [Example 66, 4-{4-[4-(1-cyanocyclopropyl)phenyl]-1H-pyrazol-1-yl}-N-hydroxy-2-methyl-2-(methylsulfonyl)butanamide] | 16 (≈ 39.8 µM) | > 64 | 8.55 | >64.0 | > 64
Cc1ccc2cc(-c3cnn(CCC(C)(C(=O)NO)S(C)(=O)=O)c3)ccc2n1 (stereo not drawn) [Example 67, N-hydroxy-2-methyl-4-[4-(2-methylquinolin-6-yl)-1H-pyrazol-1-yl]-2-(methylsulfonyl)butanamide] | 32 (≈ 79.5 µM) | > 64 | 7.92 | >64.0 | > 64
CC(CCn1cc(-c2cccc(OC(F)F)c2)cn1)(C(=O)NO)S(C)(=O)=O (stereo not drawn) [Example 68, 4-{4-[3-(difluoromethoxy)phenyl]-1H-pyrazol-1-yl}-N-hydroxy-2-methyl-2-(methylsulfonyl)butanamide] | 8 (≈ 19.8 µM) | > 64 | 8.68 | >64.0 | 64 (≈ 159 µM)
CC(CCn1cc(-c2ccc3cnc(N)cc3c2)cn1)(C(=O)NO)S(C)(=O)=O (stereo not drawn) [Example 69, 4-[4-(3-aminoisoquinolin-6-yl)-1H-pyrazol-1-yl]-N-hydroxy-2-methyl-2-(methylsulfonyl)butanamide] | > 64 | > 64 | 8.59 | >64.0 | > 64
CC(CCn1cc(-c2ccc(-c3cc[nH]n3)cc2)cn1)(C(=O)NO)S(C)(=O)=O (stereo not drawn) [Example 70, N-hydroxy-2-methyl-2-(methylsulfonyl)-4-{4-[4-(1H-pyrazol-3-yl)phenyl]-1H-pyrazol-1-yl}butanamide] | 32 (≈ 79.3 µM) | > 64 | 8.39 | >64.0 | 64 (≈ 159 µM)
CC(CCn1cc(-c2cccc(-c3cc[nH]n3)c2)cn1)(C(=O)NO)S(C)(=O)=O (stereo not drawn) [Example 71, N-hydroxy-2-methyl-2-(methylsulfonyl)-4-{4-[3-(1H-pyrazol-3-yl)phenyl]-1H-pyrazol-1-yl}butanamide] | > 64 | > 64 | 8.29 | >64.0 | > 64
CC(CCn1cc(-c2ccc(-c3cnco3)cc2)cn1)(C(=O)NO)S(C)(=O)=O (stereo not drawn) [Example 72, N-hydroxy-2-methyl-2-(methylsulfonyl)-4-{4-[4-(1,3-oxazol-5-yl)phenyl]-1H-pyrazol-1-yl}butanamide] | 2 (≈ 4.95 µM) | > 64 | 9.43 | 16 | 4 (≈ 9.89 µM)
CC(CCn1cc(-c2ccc(-c3ccno3)cc2)cn1)(C(=O)NO)S(C)(=O)=O (stereo not drawn) [Example 73, N-hydroxy-2-methyl-2-(methylsulfonyl)-4-{4-[4-(1,2-oxazol-5-yl)phenyl]-1H-pyrazol-1-yl}butanamide] | 2 (≈ 4.95 µM) | > 64 | 9.46 | 16 | 4 (≈ 9.89 µM)
CC(CCn1cc(-c2cccc(-c3ccno3)c2)cn1)(C(=O)NO)S(C)(=O)=O (stereo not drawn) [Example 74, N-hydroxy-2-methyl-2-(methylsulfonyl)-4-{4-[3-(1,2-oxazol-5-yl)phenyl]-1H-pyrazol-1-yl}butanamide] | 32 (≈ 79.1 µM) | > 64 | 8.61 | >64.0 | > 64
CC(CCn1cc(-c2ccc3c(c2)C(=O)CCC3)cn1)(C(=O)NO)S(C)(=O)=O (stereo not drawn) [Example 75, N-hydroxy-2-methyl-2-(methylsulfonyl)-4-[4-(8-oxo-5,6,7,8-tetrahydronaphthalen-2-yl)-1H-pyrazol-1-yl]butanamide] | 64 (≈ 158 µM) | > 64 | 8.14 | >64.0 | > 64
CC(CCn1cc(-c2ccc(C(F)(F)F)cn2)cn1)(C(=O)NO)S(C)(=O)=O (stereo not drawn) [Example 76, N-hydroxy-2-methyl-2-(methylsulfonyl)-4-{4-[5-(trifluoromethyl)pyridin-2-yl]-1H-pyrazol-1-yl}butanamide] | 64 (≈ 157 µM) | > 64 | 7.43 | >64.0 | > 64
CC(CCn1cc(-c2ccc(C(F)(F)F)nc2)cn1)(C(=O)NO)S(C)(=O)=O (stereo not drawn) [Example 77, N-hydroxy-2-methyl-2-(methylsulfonyl)-4-{4-[6-(trifluoromethyl)pyridin-3-yl]-1H-pyrazol-1-yl}butanamide] | 64 (≈ 157 µM) | > 64 | 7.71 | >64.0 | > 64
CCOc1ccc(-c2cnn(CCC(C)(C(=O)NO)S(C)(=O)=O)c2)cc1C#N (stereo not drawn) [Example 78, 4-[4-(3-cyano-4-ethoxyphenyl)-1H-pyrazol-1-yl]-N-hydroxy-2-methyl-2-(methylsulfonyl)butanamide] | 64 (≈ 157 µM) | > 64 | 7.66 | >64.0 | > 64
Cc1nc2ccc(-c3cnn(CCC(C)(C(=O)NO)S(C)(=O)=O)c3)cc2s1 (stereo not drawn) [Example 79, N-hydroxy-2-methyl-4-[4-(2-methyl-1,3-benzothiazol-6-yl)-1H-pyrazol-1-yl]-2-(methylsulfonyl)butanamide] | 16 (≈ 39.2 µM) | > 64 | 8.21 | >64.0 | 64 (≈ 157 µM)
CC(CCn1cc(-c2ccc3nc(N)sc3c2)cn1)(C(=O)NO)S(C)(=O)=O (stereo not drawn) [Example 80, 4-[4-(2-amino-1,3-benzothiazol-6-yl)-1H-pyrazol-1-yl]-N-hydroxy-2-methyl-2-(methylsulfonyl)butanamide] | > 64 | > 64 | 7.12 | >64.0 | > 64
CC(C)COc1ccc(-c2cnn(CCC(C)(C(=O)NO)S(C)(=O)=O)c2)cn1 (stereo not drawn) [Example 81, N-hydroxy-2-methyl-4-{4-[6-(2-methylpropoxy)pyridin-3-yl]-1H-pyrazol-1-yl}-2-(methylsulfonyl)butanamide] | 32 (≈ 78 µM) | > 64 | 8.68 | 32 | 8 (≈ 19.5 µM)
Cn1nccc1-c1ccc(-c2cnn(CCC(C)(C(=O)NO)S(C)(=O)=O)c2)cc1 (stereo not drawn) [Example 82, N-hydroxy-2-methyl-4-{4-[4-(1-methyl-1H-pyrazol-5-yl)phenyl]-1H-pyrazol-1-yl}-2-(methylsulfonyl)butanamide] | 16 (≈ 38.3 µM) | > 64 | 8.48 | 32 | 8 (≈ 19.2 µM)
Cc1cc(-c2ccc(-c3cnn(CCC(C)(C(=O)NO)S(C)(=O)=O)c3)cc2)[nH]n1 (stereo not drawn) [Example 84, N-hydroxy-2-methyl-4-{4-[4-(3-methyl-1H-pyrazol-5-yl)phenyl]-1H-pyrazol-1-yl}-2-(methylsulfonyl)butanamide] | 64 (≈ 153 µM) | > 64 | 8.19 | >64.0 | 16 (≈ 38.3 µM)
CC(CCn1cc(-c2cccc(-c3cc(N)[nH]n3)c2)cn1)(C(=O)NO)S(C)(=O)=O (stereo not drawn) [Example 85, 4-{4-[3-(5-amino-1H-pyrazol-3-yl)phenyl]-1H-pyrazol-1-yl}-N-hydroxy-2-methyl-2-(methylsulfonyl)butanamide] | > 64 | > 64 | 7.23 | >64.0 | > 64
CC(CCn1cc(-c2ccc3cc(C(N)=O)[nH]c3c2)cn1)(C(=O)NO)S(C)(=O)=O (stereo not drawn) [Example 86, 6-{1-[4-(hydroxyamino)-3-methyl-3-(methylsulfonyl)-4-oxobutyl]-1H-pyrazol-4-yl}-1H-indole-2-carboxamide] | > 64 | > 64 | 7.84 | >64.0 | > 64
